# In patent US20240166681A1, “3'3' CYCLIC DINUCLEOTIDES CONTAINING ISONUCLEOTIDIC UNITS” (INSTITUTE OF ORGANIC CHEMISTRY AND BIOCHEMISTRY AS CR, V. …, priority 2021, published 2024):
# Biological target: WT STING (Homo sapiens, UniProt Q86WV6, H232R)
# Test: Differential scanning fluorimetry with WT STING
# Assay type: binding
# Set-up: truncated human WT STING or AQ STING (amino acid residues 140-343); 8xHis (N, cleaved yes); SUMO (N, cleaved yes); made in house; host or cells: E. coli Rosetta-gami B (DE3)
# Details: thermal shift, truncated human WT STING 0.1 mg/ml, 150 μM CDN
# Excerpt: Both WT and AQ human STING (G230A-R293Q) cDNA were amplified by the use of PCR (Phusion® High-Fidelity DNA Polymerase, cat. #M0530S, NEB, Ipswich, USA) using oligonucleotides hSTING140-BamH-For ([…]) (SEQ ID NO:5) and hSTING379-Not-Rev3 ([…]) (SEQ ID NO:6) from pUNO1-hSTING-WT (cat. #puno1-hstingwt, InvivoGen, San Diego, USA) and pUNO1-hSTING-HAQ plasmids (punol-hsting-haq, InvivoGen, San Diego, USA). Purified PCR products were cleaved with restriction enzymes BamHI (cat. #R0136S, NEB, Ipswich, USA) and Notl (cat. #R0189S, NEB, Ipswich, USA) and cloned into the pSUMO vector linearized with the identical enzymes. Plasmid pSUMO was created by introducing 8-His-SUMO sequence between Ndel and BamHI sites of pHis-parallel2 plasmid (Clontech, Moutain View, USA). pSUMO-STING WT or pSUMO-STING AQ plasmids thus encoded truncated human WT STING or AQ STING (amino acid residues 140-343) with N-terminal 8xHis and SUMO tag.
# The recombinant WT STING and AQ STING proteins were overexpressed in Rosetta-gami B (DE3) competent cells (cat. #71136-3, Merck Millipore, Billerica, USA). Bacterial pellets were re-suspended in ice-cold lysis buffer containing 50 mmol·l^−1 TrisCl (cat. #T1503, Sigma Aldrich, Czech Republic) pH 8.0, 300 mmol·l^−1 NaCl, 3 mmol·l^−1 β-mercaptoethanol (cat. #M6250, Sigma Aldrich, Czech Republic), 10% glycerol (cat. #G5516, Sigma Aldrich, Czech Republic) and 20 mmol·l^−1 imidazole (cat. #15513, Sigma Aldrich, Czech Republic) using Dounce homogenizer. DNase I (cat. #D5025, Sigma Aldrich, Czech Republic) and RNase A (cat. #R6513, Sigma Aldrich, Czech Republic) were added (final concentration 50 μg/ml) together with MgCl2 (final concentration 5 mmol·l^−1) to the homogenate and bacteria were lysed using French Press G-M™ High-Pressure Cell Press Homogenizer (1500 psi, 3 cycles). Lysate was spun 30,000 g for 20 minutes and supernatant was gently stirred with Ni-NTA resin (cat. #745400.25 Macherey-Nagel, Duren, Germany) for 30 minutes. The resin was poured into a chromatography column, washed with 50 ml buffer A (50 mmol·l^−1 TrisCl (pH 8.0), 800 mmol·l^−1 NaCl, 3 mmol·l^−1 (3-mercaptol; 10% glycerol; 20 mmol·l^−1 imidazole) and 8-His-SUMO tagged STING proteins were eluted with 15 ml buffer A containing 300 mmol·l^−1 imidazole. The eluted proteins were cleaved with recombinant SUMO protease (80 μg/ml of protein solution, cat. #12588018, ThermoFisher, Waltham, USA). The proteins were further purified by size exclusion chromatography using HiLoad 16/60 Superdex 75 (cat. #28989333, GE Healthcare Bio-Sciences, Pittsburgh, USA) in 50 mmol·l^−1 Tris Cl buffer pH 7.4 containing 150 mmol·l^−1 NaCl, and 10% glycerol. Proteins were concentrated with Amicon® Ultra-15 10 K device (cat. #UFC901008, Merck Millipore, Billerica, USA) and flash frozen in liquid N2.
# WT and AQ allelic forms of STING protein were diluted to the final concentration 0.1 mg/ml in 100 mmol·l^−1 TrisCl buffer pH 7.4 containing, 150 mmol·l^−1 NaCl, 1:500 SYPRO Orange (cat. #S6650, ThermoFisher, Waltham, USA) and 150 μM CDN or water. 20 μL solutions of the reaction mixtures were pipetted in triplicates into 96 well optical reaction plates and thermal denaturation of samples were performed on real time PCR cycler (LightCycler® 480 Instrument II—Roche, Basel, Switzerland). The first derivative of the thermal denaturation curves was performed to calculate denaturing temperatures of STING—CDN complexes and STING apoproteins. The thermal shift for each CDN was calculated by subtracting the average denaturing temperature of STING apoprotein from the average denaturing temperature of STING CDN complex.
# Chain of WT STING (Q86WV6 140-343 H232R): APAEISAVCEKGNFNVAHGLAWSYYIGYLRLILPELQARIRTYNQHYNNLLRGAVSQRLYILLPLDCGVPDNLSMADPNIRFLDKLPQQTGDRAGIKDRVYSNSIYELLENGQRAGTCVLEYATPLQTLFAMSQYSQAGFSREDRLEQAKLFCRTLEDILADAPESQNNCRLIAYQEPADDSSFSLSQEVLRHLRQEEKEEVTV
row,SMILES,DSF ΔTm WT STING [°C]
1,"Nc1ncnc2c1ncn2[C@@H]1CO[C@@H]2COP(=O)(S)O[C@H]3[C@@H](F)[C@H](n4cnc5c(N)ncnc54)O[C@@H]3COP(=O)(S)O[C@@H]12 (stereo partly drawn) [Compound 55, (1S,6R,8R,9R,10R,15R,18R)-8,18-bis(6-amino-9H-purin-9-yl)-9-fluoro-3,12-disulfanyl-2,4,7,11,13,16-hexaoxa-3λ^5,12λ^5-diphosphatricyclo[13.3.0.0^6,10]octadecane-3,12-dione]",11.0

# Same assay, conditions: thermal shift, truncated human WT STING 0.1 mg/ml, 150 μM CDN; read-out: DSF ΔTm WT STING
row,SMILES,ΔTm at 150 µM [°C]
1,"Nc1nc2c(ncn2[C@@H]2O[C@@H]3COP(=O)(O)O[C@H]4[C@H](n5cnc6c(N)ncnc65)CO[C@@H]4COP(=O)(O)O[C@H]3[C@H]2F)c(=O)[nH]1 [Compound 24, (1S,6R,8R,9R,10R,15R,18R)-8-(2-amino-6-oxo-6,9-dihydro-1H-purin-9-yl)-18-(6-amino-9H-purin-9-yl)-9-fluoro-3,12-dihydroxy-2,4,7,11,13,16-hexaoxa-3λ^5,12λ^5-diphosphatricyclo[13.3.0.0^6,10]octadecane-3,12-dione]",8.5
2,"Nc1ncnc2c1ncn2[C@@H]1CO[C@@H]2COP(=O)(O)O[C@H]3[C@@H](F)[C@H](n4cnc5c(N)ncnc54)O[C@@H]3COP(=O)(O)O[C@@H]12 [Compound 28, (1S,6R,8R,9R,10R,15R,18R)-8,18-bis(6-amino-9H-purin-9-yl)-9-fluoro-3,12-dihydroxy-2,4,7,11,13,16-hexaoxa-3λ^5,12λ^5-diphosphatricyclo[13.3.0.0^6,10]octadecane-3,12-dione]",5.6
3,"Nc1ncnc2c1ncn2[C@@H]1CC[C@@H]2COP(=O)(O)O[C@H]3[C@@H](F)[C@H](n4cnc5c(N)ncnc54)O[C@@H]3COP(=O)(O)O[C@H]21 [Compound 34, (1R,6R,8R,9R,10R,15R,18R)-8,18-bis(6-amino-9H-purin-9-yl)-9-fluoro-3,12-dihydroxy-2,4,7,11,13-pentaoxa-3λ^5,12λ^5-diphosphatricyclo[13.3.0.0^6,10]octadecane-3,12-dione]",1.6
4,"Nc1ncnc2c1ncn2[C@@H]1CO[C@@H]2COP(=O)(O)O[C@H]3C[C@H](n4cnc5c(N)ncnc54)O[C@@H]3COP(=O)(O)O[C@@H]12 [Compound 50, (1S,6R,8R,10S,15R,18R)-8,18-bis(6-amino-9H-purin-9-yl)-3,12-dihydroxy-2,4,7,11,13,16-hexaoxa-3λ^5,12λ^5-diphosphatricyclo[13.3.0.0^6,10]octadecane-3,12-dione]",1.8
5,"Nc1nc2c(ncn2[C@@H]2CO[C@@H]3COP(=O)(O)O[C@H]4[C@@H](F)[C@H](n5cnc6c(N)ncnc65)O[C@@H]4COP(=O)(O)O[C@@H]23)c(=O)[nH]1 [Compound 51, (1S,6R,8R,9R,10R,15R,18R)-18-(2-amino-6-oxo-6,9-dihydro-1H-purin-9-yl)-8-(6-amino-9H-purin-9-yl)-9-fluoro-3,12-dihydroxy-2,4,7,11,13,16-hexaoxa-3λ^5,12λ^5-diphosphatricyclo[13.3.0.0^6,10]octadecane-3,12-dione]",6.8
6,"Nc1nc2c(ncn2[C@@H]2CO[C@@H]3COP(=O)(O)O[C@H]4[C@H](n5cnc6c(N)ncnc65)CO[C@@H]4COP(=O)(O)O[C@@H]23)c(=O)[nH]1 [Compound 52, (1S,6R,9R,10S,15R,18R)-9-(2-amino-6-oxo-6,9-dihydro-1H-purin-9-yl)-18-(6-amino-9H-purin-9-yl)-3,12-dihydroxy-2,4,7,11,13,16-hexaoxa-3λ^5,12λ^5-diphosphatricyclo[13.3.0.0^6,10]octadecane-3,12-dione]",2.4
7,"Nc1nc2c(ncn2[C@@H]2CO[C@@H]3COP(=O)(O)O[C@H]4C[C@H](n5cnc6c(N)ncnc65)O[C@@H]4COP(=O)(O)O[C@@H]23)c(=O)[nH]1 [Compound 53, (1S,6R,8R,10S,15R,18R)-18-(2-amino-6-oxo-6,9-dihydro-1H-purin-9-yl)-8-(6-amino-9H-purin-9-yl)-3,12-dihydroxy-2,4,7,11,13,16-hexaoxa-3λ^5,12λ^5-diphosphatricyclo[13.3.0.0^6,10]octadecane-3,12-dione]",2.9
8,"Nc1ncnc2c1ncn2[C@@H]1CO[C@@H]2COP(=O)(S)O[C@H]3[C@@H](F)[C@H](n4cnc5c(N)ncnc54)O[C@@H]3COP(=O)(S)O[C@@H]12 (stereo partly drawn) [Compound 54, (1S,6R,8R,9R,10R,15R,18R)-8,18-bis(6-amino-9H-purin-9-yl)-9-fluoro-3,12-disulfanyl-2,4,7,11,13,16-hexaoxa-3λ^5,12λ^5-diphosphatricyclo[13.3.0.0^6,10]octadecane-3,12-dione]",8.5
